# Counter-ions that a name gives are not always drawn.
# Tests used:
# [1] = molecular target: Hco-L-AChR-1 (Hco-UNC-38, Hco-UNC-63, Hco-UNC-29.1, Hco-ACR-8) (Haemonchus contortus, UniProt A9XX24+D6MYE9+D6MYF3+D6MYF4); assay: Two-electrode voltage-clamp on Xenopus oocytes expressing Hco-L-AChR-1; format: cell-based; settings: for Response to agonist: 100 μM agonist
# Text: H. contortus and P. equorum acr-26 and acr-27 cDNAs were PCR-amplified using primers containing a restriction site in order to be sub-cloned into the expression vector pTB207 that is suitable for in vitro transcription. Primers are listed in S3 Table. The resulting plasmids were linearized with the NheI restriction enzyme (Fermantas) and used as templates for cRNA synthesis using the T7 mMessage mMachine kit (Ambion). Xenopus laevis ovaries were obtained from the University of Rennes, France (CRB Xenope) and defolliculated using 2 mg/ml collagenase type II (Gibco) in the incubation solution containing: 100 mM NaCl, 2 mM KCl, 1.8 mM CaCl2.2H2O, 1 mM MgCl2.6H2O, 5 mM HEPES, 2.5 mM C3H3NaO3, pH 7.5, supplemented with penicillin 100 U/mL and streptomycin 100 μg/mL). The oocytes were injected in the animal pole with a total volume of 36 nL of cRNA mix containing 50 ng/μL of each cRNA in RNase-free water using the Drummond nanoject II microinjector. Microinjected oocytes were kept at 20°C in incubation medium for 4 days to allow the receptors expression. Two-electrode voltage-clamp recordings were carried out using an Oocyte Clamp OC-725C amplifier (Warner instrument) in oocytes being voltage-clamped at -60mV. All agonist preparations were prepared with recording buffer (100 mM NaCl, 2.5 mM KCl, 1 mM CaCl2.2H2O, 5 mM HEPES, pH 7.3). Currents were recorded and analyzed using the pCLAMP 10.4 package (Molecular Devices).
# Supplementary file ppat.1005267.s003.tif: S3 Fig Pharmacological profiles of Hco-L-AChR-1 and Hco-L-AChR-2. […] The bars indicate the time period of the agonist application. Functional expression of Hco-L-AChR-1 requires the co-expression of Hco-UNC-38; Hco-UNC-63; Hco-UNC-29.1 and Hco-ACR-8 AChR subunits with the ancillary proteins Hco-RIC-3.1; Hco-UNC-50 and Hco-UNC-74 whereas Hco-L-AChR-2 requires the co-expression of Hco-UNC-38; Hco-UNC-63 and Hco-UNC-29.1 AChR subunits with the ancillary proteins Hco-RIC-3.1; Hco-UNC-50 and Hco-UNC-74. (C) Scatter plot (mean ± SEM) of normalized currents elicited by 100 μM Mor on Hco-26/27, Hco-L-AChR-1 and Hco-L-AChR-2. Currents have been normalized to and compared with 100 μM ACh elicited currents. Paired Student’s t-test, ***p<0.001. (D) Dose-response relationships of Hco-L-AChR-1 (black circle, n = 7) and Hco-L-AChR-2 (blue squares, n = 9) for Mor. Responses are normalized to 300 μM ACh elicited currents as described in Boulin et al.. […] (TIF) Click here for additional data file.
# [2] = system: C. elegans expressing Hco-26/27; assay: Thrashing assay on transgenic C. elegans expressing Hco-26/27; format: in vivo, Caenorhabditis elegans
# Text: Taking advantage of the absence of acr-26 and acr-27 homologs in the C. elegans genome, we used wild type N2 worms to express these two parasitic nematode AChR subunits. […] For Peq-ACR-26 and Peq-ACR-27, even though the localization of these subunits in Parascaris equorum remains to be investigated in more detail, we also used myo3 as a promoter in order to compare the functional impact of Hco-26/27 and Peq-26/27 on both motility and drug sensitivity in transgenic C. elegans.
# Worms were maintained at 20°C on nematode growth medium (NGM) plates and fed on a bacterial lawn (Escherichia coli OP50). Bristol N2 was used as a reference wild-type C. elegans strain. Dose-response assays were performed on gravid adults placed in wells of a 96-well plate containing M9 salt solution (3 g/L KH2PO4, 6 g/L Na2HPO4, 5 g/L NaCl, and 1 mM MgSO4 with BSA at 0.1%) with varying anthelmintic concentrations. After 10 min, worm thrashing was counted for 1 min. A thrash was defined as a change in the direction of bending at the mid-body to return to the initial position. For each drug concentration, 30 worms were tested. Hco-acr-26, Hco-acr-27, Peq-acr-26 and Peq-acr-27 coding sequences were sub-cloned into the pPD96.52 (Addgene) vector containing the muscle promoter Pmyo3. Primer sequences containing the suitable restriction sites are listed in S3 Table. Extrachromosomal transgenic strains of C. elegans were obtained by micro-injecting DNA into the gonads of young adult hermaphrodite worms as described. N2 worms were injected with different mixes containing Pmyo3::Hco-acr-26; Pmyo3::Hco-acr-27; Pmyo3::Peq-acr-26; Pmyo3::Peq-acr-27 alone or in combination (Pmyo3::Hco-acr-26 + Pmyo3::Hco-acr-27 or Pmyo3::Peq-acr-26 + Pmyo3::Peq-acr-27) with a final concentration of 40 ng/μl for each plasmid. The plasmid pPD118.33_Pmyo2::gfp (Addgene) was co-injected at 25 ng/μl as a transformation marker. […] Thrashes produced by each worm during 1 minute were counted after a 10 minutes equilibration period. After drug application, thrashes were counted after 10, 20 and 30 minutes of exposure. […]
# Sequence of Hco-L-AChR-1 (Hco-UNC-38, Hco-UNC-63, Hco-UNC-29.1, Hco-ACR-8) (D6MYF3 20-512): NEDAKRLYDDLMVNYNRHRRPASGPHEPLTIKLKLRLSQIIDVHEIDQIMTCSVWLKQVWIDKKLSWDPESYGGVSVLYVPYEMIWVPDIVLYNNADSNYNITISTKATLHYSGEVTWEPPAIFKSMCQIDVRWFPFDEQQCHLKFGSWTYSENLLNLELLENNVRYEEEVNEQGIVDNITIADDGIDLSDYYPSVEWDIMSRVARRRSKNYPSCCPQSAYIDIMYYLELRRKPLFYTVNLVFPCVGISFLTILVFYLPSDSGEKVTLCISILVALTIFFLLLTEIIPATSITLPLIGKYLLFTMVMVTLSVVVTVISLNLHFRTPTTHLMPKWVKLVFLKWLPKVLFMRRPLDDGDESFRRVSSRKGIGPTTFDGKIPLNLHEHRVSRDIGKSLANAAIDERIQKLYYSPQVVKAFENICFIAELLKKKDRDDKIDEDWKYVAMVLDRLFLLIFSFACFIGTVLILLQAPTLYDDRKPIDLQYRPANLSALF
# Sequence of Hco-L-AChR-1 (Hco-UNC-38, Hco-UNC-63, Hco-UNC-29.1, Hco-ACR-8) (D6MYF4 22-504): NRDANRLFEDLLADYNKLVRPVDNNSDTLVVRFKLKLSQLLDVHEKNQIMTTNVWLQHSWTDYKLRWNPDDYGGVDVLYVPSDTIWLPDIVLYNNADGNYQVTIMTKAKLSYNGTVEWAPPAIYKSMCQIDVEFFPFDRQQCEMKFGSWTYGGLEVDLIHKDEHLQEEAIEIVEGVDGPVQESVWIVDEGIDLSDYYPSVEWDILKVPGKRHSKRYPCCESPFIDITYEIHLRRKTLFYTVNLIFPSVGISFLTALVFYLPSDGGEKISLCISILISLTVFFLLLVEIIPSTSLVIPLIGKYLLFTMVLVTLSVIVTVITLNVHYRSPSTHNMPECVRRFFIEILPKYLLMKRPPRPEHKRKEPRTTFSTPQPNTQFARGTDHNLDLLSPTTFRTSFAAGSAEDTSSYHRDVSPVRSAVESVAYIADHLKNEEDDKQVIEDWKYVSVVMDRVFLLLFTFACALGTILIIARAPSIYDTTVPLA
# Sequence of Hco-L-AChR-1 (Hco-UNC-38, Hco-UNC-63, Hco-UNC-29.1, Hco-ACR-8) (D6MYE9 21-498): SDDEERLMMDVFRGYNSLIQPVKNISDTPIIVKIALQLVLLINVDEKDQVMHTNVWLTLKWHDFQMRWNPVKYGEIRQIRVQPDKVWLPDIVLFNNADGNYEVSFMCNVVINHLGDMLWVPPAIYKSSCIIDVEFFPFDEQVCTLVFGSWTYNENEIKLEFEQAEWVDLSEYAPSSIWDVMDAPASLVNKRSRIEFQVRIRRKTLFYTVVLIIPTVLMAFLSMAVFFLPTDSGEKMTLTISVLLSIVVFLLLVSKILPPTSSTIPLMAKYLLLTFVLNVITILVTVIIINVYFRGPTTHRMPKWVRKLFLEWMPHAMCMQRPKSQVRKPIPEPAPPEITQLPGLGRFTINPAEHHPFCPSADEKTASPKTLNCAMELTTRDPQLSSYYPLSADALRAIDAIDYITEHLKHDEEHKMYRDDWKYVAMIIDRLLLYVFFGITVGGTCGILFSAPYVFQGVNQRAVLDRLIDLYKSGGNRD
# Sequence of Hco-L-AChR-1 (Hco-UNC-38, Hco-UNC-63, Hco-UNC-29.1, Hco-ACR-8) (A9XX24 19-536): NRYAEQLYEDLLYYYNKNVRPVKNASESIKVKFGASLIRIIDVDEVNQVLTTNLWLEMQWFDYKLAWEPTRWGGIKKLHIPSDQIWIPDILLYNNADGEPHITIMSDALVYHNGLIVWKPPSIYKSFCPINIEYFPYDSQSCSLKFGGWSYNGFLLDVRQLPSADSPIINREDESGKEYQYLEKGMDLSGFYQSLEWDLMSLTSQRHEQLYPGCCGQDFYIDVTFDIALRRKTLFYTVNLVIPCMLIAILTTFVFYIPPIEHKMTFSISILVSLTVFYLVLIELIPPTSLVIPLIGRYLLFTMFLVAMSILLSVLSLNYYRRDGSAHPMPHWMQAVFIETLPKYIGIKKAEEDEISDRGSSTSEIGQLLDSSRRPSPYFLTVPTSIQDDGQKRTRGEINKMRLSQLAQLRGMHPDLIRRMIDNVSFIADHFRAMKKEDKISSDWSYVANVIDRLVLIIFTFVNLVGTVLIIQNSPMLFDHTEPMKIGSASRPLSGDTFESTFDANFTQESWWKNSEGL
SMILES,Response to agonist [1],Change in sensitivity versus N2 ([2]; 5 μM Lev),Concentrations with potential channel-block effect [1],EC50 [1] [nM],"Reduction of thrashing motility ([2]; 40 μM Mor, 10 minutes exposure) [%]","Percentage reduction of thrashes min^-1 ([2]; 50 μM Pyr, 10 minutes of drug exposure) [%]"
"c1ccc([C@H]2CN3CCSC3=N2)cc1 [Lev, (-)-tetramisole hydrochloride]",very responsive,no significant change,,,,
"Cc1ccsc1/C=C/C1=NCCCN1C [Mor, morantel]",weak response,,above 30 μM,410 ± 230,93.3,
"CN1CCCN=C1/C=C/c1cccs1 [Pyr, pyrantel]",,,,,,65.4

# Source: publication PMC4666645 (PLoS Pathogens, 2015)
